From patent US6323219A, “Methods for treating immunomediated inflammatory disorders” (Ortho-McNeil Pharmaceutical, Inc., priority 1999, dated 2001)
Read-outs that look alike come from different tables or passages of the source.

How the values were obtained:
Human Skin Chymase [1] = target: T1, Human Skin Chymase (Homo sapiens, UniProt P23946); assay: Chymase IC50 Method; format: biochemical; settings: 37° C., 10.0 nM enzyme, 500 μM substrate
T1 construct: purchased Cortex Biochem CP1129; host or cells: human skin
T1 sequence (P23946 22-247): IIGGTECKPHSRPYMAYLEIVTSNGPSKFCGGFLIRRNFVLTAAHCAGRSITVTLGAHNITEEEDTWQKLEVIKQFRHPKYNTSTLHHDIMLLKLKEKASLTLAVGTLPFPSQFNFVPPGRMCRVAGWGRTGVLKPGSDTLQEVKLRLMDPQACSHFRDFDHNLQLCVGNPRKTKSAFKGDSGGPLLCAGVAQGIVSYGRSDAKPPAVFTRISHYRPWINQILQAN
Protocol: (§1) The enzyme reaction is started by the addition of enzyme ([E]: 1.0 nM human Lung Tryptase; Cortex Biochem CP3033). Data is collected over a period of 30 min. and the initial rate of substrate hydrolysis (Vo (mOD/min)) is calculated. Inhibition is calculated by comparing to wells containing no inhibitor (vehicle) and IC50 s are determined using a four parameter fit logistics model. […] The enzyme reaction is started by the addition of enzyme ([E]: 10.0 nM Human Skin Chymase; Cortex Biochem CPl 129). Data is collected over a period of 30 min. and the initial rate of substrate hydrolysis (Vo (mOD/min)) is calculated. Inhibition is calculated by comparing to wells containing no inhibitor (vehicle) and IC50 s are determined using a four parameter fit logistics model. Chymase 10 μM Screen Method: The optical density at 405 nm due to hydrolysis of synthetic chromogenic peptide substrates ([S]: 500 μM Suc-Ala-Ala-Pro-Phe-pNA; Bachem L-1400) is measured in the presence and absence of inhibitor compounds of formula (I) with a microplate reader at room temperature. The enzyme reaction is started by the addition of enzyme ([E]: 5.0 nM Human Skin Chymase; Cortex Biochem CP1129), and 3 hours following that addition data is collected. After subtracting background (no enzyme addition), inhibition is calculated by comparing to wells containing no inhibitor (vehicle).

Human Skin Chymase [2] = target: T1, Human Skin Chymase; assay: Chymase 10 μM Screen Method; format: biochemical; settings: read-out: Chymase % Inhibition (10 μM)
Protocol: The enzyme reaction is started by the addition of enzyme ([E]: 1.0 nM human Lung Tryptase; Cortex Biochem CP3033). Data is collected over a period of 30 min. and the initial rate of substrate hydrolysis (Vo (mOD/min)) is calculated. Inhibition is calculated by comparing to wells containing no inhibitor (vehicle) and IC50 s are determined using a four parameter fit logistics model. […] Data is collected over a period of 30 min. and the initial rate of substrate hydrolysis (Vo (mOD/min)) is calculated. Inhibition is calculated by comparing to wells containing no inhibitor (vehicle) and IC50 s are determined using a four parameter fit logistics model. […] The enzyme reaction is started by the addition of enzyme ([E]: 5.0 nM Human Skin Chymase; Cortex Biochem CP1129), and 3 hours following that addition data is collected. After subtracting background (no enzyme addition), inhibition is calculated by comparing to wells containing no inhibitor (vehicle).

in vivo = assay: in vivo; design: species or system male rats (Long Evans); settings: rat, iv
Protocol: Since the compounds of the formula (l) are also potent thrombin inhibitors (see U.S. Pat. No. 5,523,308), an ex vivo thrombin assay was conducted to determine the duration of action of the compounds of Formula I. For this i.v. assay male rats (Long Evans, 350-500 g) were implanted with a teflon cannulae via the femoral artery while under anesthesia (pentobarbital i.p., 35 mg/kg). After surgery, the animals were individually housed in standard cages, fed with rat chow (Hanlan, #8604) and continuously infused with physiological saline to maintain arterial patency, (0.5 mL/h, intra arterial) using a spring-shielded swiveling tether connected to an infusion system. The animals were allowed to recover for at least 24 h after the surgical procedure.
A sample of blood was drawn from the animals 15 min before dosing with the inhibitor (0.25 mL blood is drawn into a syringe containing 0.025 mL of Sigma sodium citrate). The test compound was dispersed in water and delivered to the animal (0.25 mL) via the femoral vein. The inhibitor was given at a concentration (mg/mL) which produced 80% inhibition of VO in a plasma sample at 5 min after infusion. Blood was drawn from the arterial line (blood:sodium citrate, 0.25/0.025 mL ) at regular intervals after dosing (5, 10, 15, 30, 60 and 120 min) and placed in a centrifuge tube. A plasma sample was obtained by centrifuging the blood at 10,000 rpm for 5 min. This sample is analyzed for thrombin inhibition using the chromogenic assay, described below.
The rate of increase in absorbance at 405 nm of synthetic peptides (50 μM Spectozyme® TH (H-D-HHT-Ala-Arg-pNA-2AcOH), American Diagnostica) is measured in the presence of plasma with a microplate reader (Molecular Devices) at 37° C. using an aqueous buffer (10 mM Tris, 10 mM Hepes, 150 mM NaCl, 0.1% PEG; pH 7.4). The buffer was added to the plasma samples (1:1) dilution prior to delivery to the microplate (1:5 and 1:50 for final plasma dilutions of 1:10 and 1:100 respectively) followed by the enzyme (1 nM human α thrombin). Datum was collected over a 30 min period and the initial rate of substrate hydrolysis (V0 (mOD/min)) was calculated with an analysis program (Softmax, Molecular Devices).
The time to half plasma elimination (t 1/2) was calculated from the slope of VO vs. time, using the following equation: […]. These datum are presented in Table L. In Table L, the compound # corresponds to the compound number described in U.S. Pat. No. 5,523,308.

human Lung Tryptase = assay: Tryptase IC50 Method; format: biochemical; settings: 37° C., 1.0 nM enzyme, 500 μM substrate
Protocol: as §1

[3] = Bioavailability, ex vivo thrombin inhibition assay after i.v. and p.o. dosing; format: in vivo; settings: rat, plasma, po, male rats
Protocol: Bioavailability was determined by an ex vivo thrombin inhibition assay which incorporated hydrolysis rates from drug administered both i.v. and p.o. In this assay male rats were prepared as described above with a Teflon tube implanted in their femoral artery. Blood was drawn from the animals 15 min before dosing with the inhibitor (0.25 mL blood was drawn into a syringe containing 0.025 mL of Sigma sodium citrate) and set aside for analysis. The test compound was dispersed in water (0.3-3.0 mg/mL final conc.) and delivered to the animals (0.25 mL) either i.v. or p.o.. […] This sample was analyzed for thrombin inhibition using the chromogenic assay, described below.
The rate of increase in absorbance at 405 nm of synthetic peptides (50 μM Spectozyme® TH (H-D-HHT-Ala-Arg-pNA-2AcOH), American Diagnostica) was measured in the presence of plasma with a microplate reader (Molecular Devices) at 37° C. using an aqueous buffer (10 mM Tris, 10 mM Hepes, 150 mM NaCI, 0.1% PEG; pH 7.4). […] Datum were collected over a 30 min period and the initial rate of substrate hydrolysis (VO (mOD/min)) was calculated with an analysis program (Softmax, Molecular Devices). […]
The percentage of thrombin inhibition in the treated animals was calculated by comparing the V0 prior to treatment with the V0 obtained from samples collected after treatment. […]

| Compound | IC50 (Human Skin Chymase [1]) [nM] | inhibition at 10 µM (Human Skin Chymase [2]) [%] | half-life (in vivo) [min] | IC50 (human Lung Tryptase) [nM] | inhibition at 10 µM (Human Skin Chymase [2]; 10 μM, room temperature, 5.0 nM enzyme, 3 hours) [%] | bioavailability [3] [%] |
| --- | --- | --- | --- | --- | --- | --- |
| CN[C@H](Cc1ccccc1)C(=O)N1CCC[C@H]1C(=O)N[C@@H](Cc1ccccc1)C(=O)c1nc2ccccc2s1 [Compound 38] | 2700 | 94 |  |  |  |  |
| CN[C@H](Cc1ccccc1)C(=O)N1CCC[C@H]1C(=O)N[C@@H](CCCNC(=N)N)C(=O)c1nc2ccccc2s1 [Compound 1] |  |  | 19 | 7.5 | 2 | 1.2 |
